The source of these data is article PMC11462456 (Chemical Science, 2024).

In data set [1] the target is T1, CRBN (Homo sapiens, UniProt Q96SW2).
T1 construct: western blot analysis of the levels of CRBN and VHL E3 ligase in cell lysate; endogenous in cells; host or cells: HEK293 (ATCC)
Briefly: E3 ligase homo-degradation by western blot, CRBN. The data set is classed as cell-based. The following applies: HEK293 cells, 4 h, 0.1, 1 and 10 μM. The text has this: 4. Biological experiments
Primary antibodies used for western blotting included anti-human BRD2(1:2000, rabbit monoclonal, Abcam, ab139690), anti-human BRD3 (1:1000, rabbit monoclonal, Abcam, ab264420), anti-human BRD4 (E2A7X) (1:1000, rabbit monoclonal, Cell Signaling Technology, #13440), anti-human VHL (1:1000, rabbit polyclonal, Cell Signaling Technology, #68547), anti-human CRBN (D8H3S) (1:1000, rabbit polyclonal, Cell Signaling Technology, #71810), anti-human alpha Tubulin, clone B-5-1-2 (1:5000, mouse monoclonal, Merck Life Science, # 32-2500).Secondary antibodies used for western blot included: anti-mouse horseradish peroxidase-linked antibody (1:3000, sheep, GE Healthcare Life Sciences, #NA931V), and anti-rabbit horseradish peroxidase-linked antibody (1:8000, donkey, GE Healthcare Life Sciences, #NA934V). Reagent for degradation assay and compounds […]
dr. Serge Van Calenbergh, Ghent University).
4.2 Cell lines and culture
HEK293, A549, SKOV-3, HCT116 cells (ATCC)were grown in DMEM (Gibco),and all cells were supplemented with 10% (v/v) fetal bovine serum (FBS) (Sigma), […] penicillin/streptomycin solution (Thermo Fisher Scientific) and maintained at 37 °C and 5% CO2 in a humidified atmosphere. All cells used were tested monthly using the Mycoalert Mycoplasma Detection Kit (cat. no. LT07-318, Lonza) to exclude mycoplasma contamination.
4.3 Degradation assays by Western blot
General method of Western blot: Lysates were sonicated and centrifuged at 4 °C at 20000 g for 15 min, and the supernatants were transferred to new tubes. Protein concentration of cell lysates was measured using the DC Protein Assay kit (BIO-RAD) following manufacturer's instructions. Cell lysates were mixed with reducing sample buffer (0.5 M Tris-HCl (pH 6.8), 43% glycerol, 9.2% SDS, 5% 2-mercaptoethanol, 5% bromophenol blue) and boiled for 5 min at 95°C. […]
Figure S5 Homo-degradation effect in Dual-ligand PROTACs. […] Subsequently, cell lysates were prepared and the protein levels of CRBN or VHL E3 ligase were assessed by Western blotting. […]
(In western blotting, separated proteins are transferred to a membrane and probed.)

Data set [2] is described as follows: Body weight change in A549 xenograft mice. The data set is classed as in vivo, mouse. The following applies: i.p. The method, then:
4.7 Therapeutic anti-tumor evaluation
Animal experiments were carried out in accordance with the regulatory guidelines of the Ethics Committee of the Ghent University Hospital. 30 female Swiss Nude Immunodeficient mice (Crl:NU(Ico)-Foxn1nu) of 5 weeks-6 weeks old (Charles River) were subcutaneously injected with […] A549 (1:1 serum free DMEM medium: Matrigel (Corning)). 10 days post inoculation ,mice were randomized into five groups (6 mice/group) with equal average tumor volume and treatment was started: (1) the control group: Vehicle(20% PEG400 and 5% […]
2J2V group (0.1 mg/kg), (5) the 2J2V group(0.5 mg/kg).Mice were treated on Day 0, Day 2, Day 4, Day 11, Day 18 by intraperitoneal injection. Tumor growth was monitored every 3 days by caliper, and the tumor volume was calculated as 1/2 × length × width2. Body weight was monitored every 3 days by weighing scale. […]
The reduced […]
proteins were alkylated with 40 mM iodoacetamide (IAA) in the dark for 30 minutes. Then samples were acidified with 1.2% aqueous phosphoric acid and mixed with 6× volumes of 90% methanol, 100 mM TEAB, pH 7.1 (S-Trap binding buffer). The samples were loaded onto the (1 picture or pasted object on this page, not shown here)

For data set [3], the system named is A549 cells. Briefly: MTT cell viability with and without washout. The data set is classed as cell-based, human. Here is the method: Figure S6 Dual-ligand PROTAC activity is not caused by enhanced BRD-inhibition by dual JQ1
display. A549 cells were treated with an escalating dose of 2J2V, 2J-N3 and JQ1, respectively, for 8h.
Subsequently, cells were either washed and cultured in fresh medium, or left untouched. After a total
of 48h, cell viability was measured by MTT assay (n=6). […]

In data set [4] the test system is A549 spheroids. Briefly: CellTiter-Glo 3D assay on spheroids. The data set is classed as cell-based. To be noted: Homo sapiens, 72 h, read-out: EC50, spheroid metabolic activity. Here is the method:
4.5 Cell viability assay on 3D cell cultures
The single cell suspension containing 2.5 ×10^4 cells/ml of A549 or 2 ×10^4 cells/ml of HCT116 were seeded into the U-shaped, 384-well ULA plates (cat. no. MS-9384UZ, S-bio), each well containing 80 μl single cell suspension. The 384-well ULA plates were sealed with Breath-Easy semipermeable tape (cat. no. BEM-1, Diversified Biotech) to prevent evaporation. The spheroids were put into incubator and then cultured at 37 °C and 10% CO2. After 48h of spheroids formation, the spheroids were treated with various concentrations of compounds or 0.05% DMSO. After 72h treatment, each spheroid in the culture medium was pipetted into white micro-96-well plates (cat. no. 236108, ThermoFisher) and an equal volume of Cell Titer-Glo 3D (cat. no. G9683, Promega) reagent was added. Luminescence readouts were the same as described above for 2D culture.

T1 sequence (Q96SW2 whole entry): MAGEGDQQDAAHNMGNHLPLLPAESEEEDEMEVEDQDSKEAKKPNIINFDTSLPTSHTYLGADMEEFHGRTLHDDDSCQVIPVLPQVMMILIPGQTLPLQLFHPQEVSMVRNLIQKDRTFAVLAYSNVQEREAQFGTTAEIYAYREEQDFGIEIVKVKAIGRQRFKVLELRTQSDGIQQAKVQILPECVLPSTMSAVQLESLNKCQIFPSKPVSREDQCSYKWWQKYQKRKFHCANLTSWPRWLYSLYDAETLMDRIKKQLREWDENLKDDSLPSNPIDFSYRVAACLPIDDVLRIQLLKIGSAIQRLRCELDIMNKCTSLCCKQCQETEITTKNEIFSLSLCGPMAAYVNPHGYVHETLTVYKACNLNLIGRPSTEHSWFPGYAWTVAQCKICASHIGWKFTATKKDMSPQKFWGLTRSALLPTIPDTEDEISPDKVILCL

For the compound `Cc1sc2c(c1C)C(c1ccc(Cl)cc1)=N[C@@H](CC(=O)NCCOCCOCCNC(=O)C[C@H](NC(=O)COCCOCCOCCOCCn1cc(CCC(=O)N[C@@H](CC(=O)NCCOCCOCCNc3cccc4c3C(=O)N(C3CCC(=O)NC3=O)C4=O)C(=O)NCCOCCOCCNc3cccc4c3C(=O)N(C3CCC(=O)NC3=O)C4=O)nn1)C(=O)NCCOCCOCCNC(=O)C[C@@H]1N=C(c3ccc(Cl)cc3)c3c(sc(C)c3C)-n3c(C)nnc31)c1nnc(C)n1-2` (stereo partly drawn) [2J2P], the “CRBN level (homo-degradation)” value in data set [1] is listed as “did not induce any significant decrease of CRBN”.

In the case of `Cc1ncsc1-c1ccc(C(C)NC(=O)C2CC(O)CN2C(=O)C(NC(=O)COCCOCCNC(=O)CC(NC(=O)CCc2cn(CCOCCOCCOCCOCC(=O)NC(CC(=O)NCCOCCOCCNC(=O)CC3N=C(c4ccc(Cl)cc4)c4c(sc(C)c4C)-n4c(C)nnc43)C(=O)NCCOCCOCCNC(=O)CC3N=C(c4ccc(Cl)cc4)c4c(sc(C)c4C)-n4c(C)nnc43)nn2)C(=O)NCCOCCOCC(=O)NC(C(=O)N2CC(O)CC2C(=O)NC(C)c2ccc(-c3scnc3C)cc2)C(C)(C)C)C(C)(C)C)cc1` (stereo not drawn) [2J2V], the results for the body weight change entry in data set [2] (0.1 mg kg−1) and in data set [2] (0.5 mg kg−1) were “no detectable decrease in body weight” and “slight body weight decrease”, respectively. Besides, the cytotoxic activity result in data set [3] (48 hours) is reported as “much more potent”. The “cytotoxic potency after washout” value in data set [3] (washout after 8 hours, 48 hours total) is on record as “largely retained its potency after washout”.

One may read the EC50 as the concentration needed to bring the measured effect to its halfway point. On to `Cc1ncsc1-c1ccc(CNC(=O)C2CC(O)CN2C(=O)C(NC(=O)COCCOCCOCCNC(=O)CC2N=C(c3ccc(Cl)cc3)c3c(sc(C)c3C)-n3c(C)nnc32)C(C)(C)C)cc1` (stereo not drawn) [MZ1, reference compound], for which the EC50 in data set [4] turned out to be 80 nM.
